Assay: xn = mol fraction of the nth substance listed
Conditions: Liquid, Vibrating tube method

CCCCCCCCCC [decane] + CCCO
mass density [kg/m3]
Conditions | 323.15 K | 333.15 K
100 kPa, x2 = 0.1391 | – | 698
100 kPa, x2 = 0.1907 | – | 699.22
100 kPa, x2 = 0.3001 | – | 702.36
100 kPa, x2 = 0.4326 | – | 706.94
100 kPa, x2 = 0.6863 | – | 723.34
100 kPa, x2 = 0.8711 | – | 744.53
1000 kPa, x2 = 0.8711 | – | 745.47
1010 kPa, x2 = 0.3001 | – | 703.4
1010 kPa, x2 = 0.4326 | – | 708.03
1010 kPa, x2 = 0.6863 | – | 724.38
1020 kPa, x2 = 0.1391 | – | 699.13
1020 kPa, x2 = 0.1907 | – | 700.31
2000 kPa, x2 = 0.1391 | – | 700.15
2000 kPa, x2 = 0.1907 | – | 701.33
2000 kPa, x2 = 0.6863 | – | 725.39
2010 kPa, x2 = 0.4326 | – | 709.06
2020 kPa, x2 = 0.3001 | – | 704.44
2020 kPa, x2 = 0.8711 | – | 746.44
3000 kPa, x2 = 0.3001 | – | 705.44
3010 kPa, x2 = 0.1391 | – | 701.15
3010 kPa, x2 = 0.1907 | – | 702.33
3010 kPa, x2 = 0.4326 | – | 710.06
3010 kPa, x2 = 0.6863 | – | 726.41
3010 kPa, x2 = 0.8711 | – | 747.43
4000 kPa, x2 = 0.1391 | – | 702.13
4000 kPa, x2 = 0.1907 | – | 703.34
4010 kPa, x2 = 0.4326 | – | 711.1
4010 kPa, x2 = 0.8711 | – | 748.4
4020 kPa, x2 = 0.3001 | – | 706.45
4020 kPa, x2 = 0.6863 | – | 727.43
5000 kPa, x2 = 0.1907 | – | 704.33
5000 kPa, x2 = 0.3001 | – | 707.44
5010 kPa, x2 = 0.1391 | – | 703.13
5010 kPa, x2 = 0.6863 | – | 728.46
5020 kPa, x2 = 0.4326 | – | 712.1
5020 kPa, x2 = 0.8711 | – | 749.4
6000 kPa, x2 = 0.1391 | – | 704.1
6000 kPa, x2 = 0.1907 | – | 705.29
6000 kPa, x2 = 0.3001 | – | 708.43
6010 kPa, x2 = 0.4326 | – | 713.11
6010 kPa, x2 = 0.6863 | – | 729.45
6020 kPa, x2 = 0.8711 | – | 750.38
7000 kPa, x2 = 0.1391 | – | 705.07
7000 kPa, x2 = 0.4326 | – | 714.11
7000 kPa, x2 = 0.8711 | – | 751.38
7010 kPa, x2 = 0.3001 | – | 709.43
7020 kPa, x2 = 0.1907 | – | 706.27
7020 kPa, x2 = 0.6863 | – | 730.46
8000 kPa, x2 = 0.1391 | – | 706.06
8000 kPa, x2 = 0.4326 | – | 715.11
8010 kPa, x2 = 0.1907 | – | 707.25
8010 kPa, x2 = 0.6863 | – | 731.46
8020 kPa, x2 = 0.3001 | – | 710.42
8020 kPa, x2 = 0.8711 | – | 752.35
9010 kPa, x2 = 0.1391 | – | 707
9010 kPa, x2 = 0.1907 | – | 708.23
9010 kPa, x2 = 0.3001 | – | 711.39
9010 kPa, x2 = 0.4326 | – | 716.11
9010 kPa, x2 = 0.6863 | – | 732.47
9010 kPa, x2 = 0.8711 | – | 753.31
10000 kPa, x2 = 0.1391 | – | 707.95
10000 kPa, x2 = 0.4326 | 726.96 | 717.1
10010 kPa, x2 = 0.3001 | – | 712.39
10010 kPa, x2 = 0.6863 | 743.54 | 733.45
10020 kPa, x2 = 0.1907 | – | 709.15
10020 kPa, x2 = 0.8711 | 764.05 | 754.28
11000 kPa, x2 = 0.1391 | 717.57 | –
11000 kPa, x2 = 0.1907 | 719.05 | 710.11
11010 kPa, x2 = 0.1391 | – | 708.9
11010 kPa, x2 = 0.3001 | 723.06 | –
11010 kPa, x2 = 0.4326 | 727.85 | –
11010 kPa, x2 = 0.6863 | 744.43 | 734.43
11020 kPa, x2 = 0.3001 | – | 713.35
11020 kPa, x2 = 0.4326 | – | 718.06
11020 kPa, x2 = 0.8711 | 764.93 | 755.24
12000 kPa, x2 = 0.1907 | – | 711.08
12000 kPa, x2 = 0.3001 | 723.94 | –
12000 kPa, x2 = 0.4326 | – | 719.03
12010 kPa, x2 = 0.1391 | 718.43 | 709.82
12010 kPa, x2 = 0.6863 | 745.32 | 735.38
12020 kPa, x2 = 0.1907 | 719.94 | –
12020 kPa, x2 = 0.3001 | – | 714.31
12020 kPa, x2 = 0.4326 | 728.74 | –
12020 kPa, x2 = 0.8711 | 765.79 | 756.17
13000 kPa, x2 = 0.1391 | 719.28 | –
13000 kPa, x2 = 0.8711 | – | 757.09
13010 kPa, x2 = 0.1391 | – | 710.75
13010 kPa, x2 = 0.1907 | 720.8 | 712
13010 kPa, x2 = 0.3001 | 724.81 | –
13010 kPa, x2 = 0.4326 | – | 719.98
13010 kPa, x2 = 0.6863 | 746.21 | 736.35
13020 kPa, x2 = 0.3001 | – | 715.25
13020 kPa, x2 = 0.4326 | 729.62 | –
13020 kPa, x2 = 0.8711 | 766.65 | –
14000 kPa, x2 = 0.1907 | – | 712.92
14000 kPa, x2 = 0.3001 | 725.66 | –
14000 kPa, x2 = 0.4326 | 730.47 | –
14000 kPa, x2 = 0.6863 | 747.08 | –
14000 kPa, x2 = 0.8711 | – | 758.02
14010 kPa, x2 = 0.1391 | 720.12 | 711.65
14010 kPa, x2 = 0.3001 | – | 716.18
14020 kPa, x2 = 0.1907 | 721.64 | –
14020 kPa, x2 = 0.4326 | – | 720.92
14020 kPa, x2 = 0.6863 | – | 737.27
14020 kPa, x2 = 0.8711 | 767.51 | –
15000 kPa, x2 = 0.4326 | 731.33 | –
15000 kPa, x2 = 0.6863 | 747.92 | –
15000 kPa, x2 = 0.8711 | 768.36 | –
15010 kPa, x2 = 0.1391 | 720.95 | 712.53
15010 kPa, x2 = 0.1907 | – | 713.82
15010 kPa, x2 = 0.3001 | 726.5 | –
15010 kPa, x2 = 0.4326 | – | 721.82
15010 kPa, x2 = 0.6863 | – | 738.18
15010 kPa, x2 = 0.8711 | – | 758.93
15020 kPa, x2 = 0.1907 | 722.47 | –
15020 kPa, x2 = 0.3001 | – | 717.1
16000 kPa, x2 = 0.1907 | 723.29 | –
16000 kPa, x2 = 0.6863 | 748.78 | –
16000 kPa, x2 = 0.8711 | 769.18 | –
16010 kPa, x2 = 0.1391 | 721.76 | 713.4
16010 kPa, x2 = 0.1907 | – | 714.7
16010 kPa, x2 = 0.3001 | 727.33 | 717.99
16010 kPa, x2 = 0.4326 | 732.15 | 722.73
16010 kPa, x2 = 0.6863 | – | 739.1
16020 kPa, x2 = 0.8711 | – | 759.81
17000 kPa, x2 = 0.1391 | 722.56 | –
17000 kPa, x2 = 0.6863 | 749.59 | 740
17000 kPa, x2 = 0.8711 | – | 760.7
17010 kPa, x2 = 0.1907 | 724.12 | –
17010 kPa, x2 = 0.3001 | – | 718.88
17010 kPa, x2 = 0.4326 | 732.96 | 723.6
17010 kPa, x2 = 0.8711 | 770.01 | –
17020 kPa, x2 = 0.1391 | – | 714.27
17020 kPa, x2 = 0.1907 | – | 715.58
17020 kPa, x2 = 0.3001 | 728.15 | –
18000 kPa, x2 = 0.1391 | – | 715.12
18000 kPa, x2 = 0.1907 | – | 716.42
18000 kPa, x2 = 0.3001 | – | 719.72
18000 kPa, x2 = 0.4326 | – | 724.49
18000 kPa, x2 = 0.6863 | – | 740.88
18010 kPa, x2 = 0.1391 | 723.35 | –
18010 kPa, x2 = 0.3001 | 728.94 | –
18010 kPa, x2 = 0.4326 | 733.77 | –
18010 kPa, x2 = 0.6863 | 750.41 | –
18010 kPa, x2 = 0.8711 | 770.81 | –
18020 kPa, x2 = 0.1907 | 724.91 | –
18020 kPa, x2 = 0.8711 | – | 761.56
19000 kPa, x2 = 0.4326 | 734.57 | –
19010 kPa, x2 = 0.1391 | – | 715.93
19010 kPa, x2 = 0.1907 | 725.67 | 717.24
19010 kPa, x2 = 0.3001 | 729.72 | –
19010 kPa, x2 = 0.4326 | – | 725.32
19010 kPa, x2 = 0.6863 | 751.21 | 741.72
19010 kPa, x2 = 0.8711 | 771.61 | –
19020 kPa, x2 = 0.1391 | 724.11 | –
19020 kPa, x2 = 0.3001 | – | 720.57
19020 kPa, x2 = 0.8711 | – | 762.39
20000 kPa, x2 = 0.3001 | – | 721.37
20010 kPa, x2 = 0.1391 | 724.85 | –
20010 kPa, x2 = 0.1907 | 726.42 | 718.03
20010 kPa, x2 = 0.4326 | 735.37 | –
20010 kPa, x2 = 0.6863 | – | 742.58
20010 kPa, x2 = 0.8711 | 772.39 | 763.23
20020 kPa, x2 = 0.1391 | – | 716.72
20020 kPa, x2 = 0.3001 | 730.47 | –
20020 kPa, x2 = 0.4326 | – | 726.17
20020 kPa, x2 = 0.6863 | 752 | –

— the NIST ThermoML archive (doi:10.1021/acs.jced.8b00554)
